Results taken from patent US10736888B2, “Triple combination” (HELPERBY THERAPEUTICS LIMITED, priority 2015, dated 2020).

Columns and labels:
S. aureus on pig skin = experiment: antimicrobial activity against S. aureus on pig skin (swab, CFU counting, log kill); format: cell-based, Staphylococcus aureus (Oxford); settings: Example 3; 2 hours after application; inoculum 7.6 (7.62 = complete kill)
Experimental: Staphylococcus aureus (Oxford); Gram positive; Reference strain.
Bacterial cultures were prepared by inoculation of 10 ml of nutrient broth with a single colony of bacteria on blood agar or TSA and incubated at 37° C. with continuous shaking at 100 rpm for 16 to 24 hours. The overnight cultures were used for experimental tests.
For CFU counting, the bacterial suspensions were diluted using sterile deionized water or phosphate-buffered saline (PBS, Sigma Aldrich Ltd, Poole, Dorset, UK). 100 μl of 10-fold serial dilutions of bacteria culture were plated on one third of TSA plates in triplicate and incubated 24 to 48 hours at 37° C. The number of cells presented on the plates was counted using an AcoLyte colony counter (Synbiosis) and results were expressed as Colony Forming Units/ml (CFU/ml).
The efficacy of each of the above formulations F017A, F017B and F019 was assessed against S. aureus on pig skin. The S. aureus culture was grown overnight according to methods known in the art. The overnight culture was then spread on pig skin: 40 μl of culture was used for 2 cm^3 of pig skin. Each of the formulations F017A, F017B and F019 was then applied to the pig skin.
After 2 hours and 5 hours from application of each formulation, the pig skin was swabbed and bacteria on the swab were processed for CFU counting. The results for F017A, F017B and F019 against a control experiment (where no triple combination was applied to the pig skin) and against commercially available products Bactroban® cream (mupirocin) and Naseptin® (chlorhexidine and neomycin) are shown in FIG. 1.
The efficacy of each of the above formulations F017A, F017B and F019 was again assessed against S. aureus on pig skin. The S. aureus culture was grown overnight according to methods known in the art. The overnight culture was then spread on pig skin: 40 μl of culture was used for 2 cm^3 of pig skin. […]
The efficacy of each of the above formulations F017A, F022A, F022B, F022C, F022D, F022E, F022F, and F022G was assessed against S. aureus on pig skin. […]

[1] = system: clinically latent microorganisms; experiment: screening for ability to kill clinically latent microorganisms (WO2000028074 method); format: cell-based
Description: International Patent Application, Publication Number WO2000028074 describes a method of screening compounds to determine their ability to kill clinically latent microorganisms. […] This observation has necessitated the development of novel antimicrobials which may be used to kill clinically latent microorganisms.
By way of example, WO2000028074 describes a suitable method of screening compounds to determine their ability to kill clinically latent microorganisms. A typical method may include the following steps: • (1) growing a bacterial culture to stationary phase; • (2) treating the stationary phase culture with one or more antimicrobial agents at a concentration and or time sufficient to kill growing bacteria, thereby selecting a phenotypically resistant sub-population; • (3) incubating a sample of the phenotypically resistant subpopulation with one or more test compounds or agents; and • (4) assessing any antimicrobial effects against the phenotypically resistant subpopulation.

| Compound | Log Kill 2 h (S. aureus on pig skin) | activity against clinically latent microorganisms [1] |
| --- | --- | --- |
| neomycin | 4.56 | little or no activity |
| Cc1nc2ccc(Oc3ccccc3)cc2c2c1CCN2CCc1ccccc1 [HT61, 4-methyl-8-phenoxy-1-(2-phenylethyl)-2,3-dihydro-1H-pyrrolo[3,2-c]quinoline] | 1.87 | – |
| C/C(=C\C(=O)OCCCCCCCCC(=O)O)C[C@@H]1OC[C@H](C[C@@H]2O[C@H]2[C@@H](C)[C@H](C)O)[C@@H](O)[C@H]1O [mupirocin] | 0.49 | little or no activity |
